Earlier results in patent EP2221049A2, “SOLID PHARMACEUTICAL COMPOSITION OF DED ANOSINE” (Blanver Farmoquimica, LTDA, priority 2007, dated 2009).

Settings: pH below 3, 37°C

In the case of `OC[C@@H]1CC[C@H](n2cnc3c(O)ncnc32)O1` [didanosine, 2',3'-dideoxyinosine], the “time period in which 10% of didanosine is decomposed to hypoxanthine” value is given as under 2 min.
